Source: US11246877B2, “Nanoparticles for chemotherapy, targeted therapy, photodynamic therapy, immunotherapy, and any combination thereof” (The University of Chicago, priority 2016, dated 2022)
Like-named read-outs stand apart in the source and are kept apart here.

How the values were obtained:
[1] = tested on: A2780/CDDP cells; assay: In vitro cytotoxicity of cisplatin, OTS167 and NCP-1/OTS167; format: cell-based
Experimental: The cytotoxicity of NCP-1/OTS167 with different molar ratio was then evaluated.

[2] = tested on: H82 cells; assay: In vitro cytotoxicity against small cell lung cancer cells, MTS, 96 h; format: cell-based; conditions: Homo sapiens, NCI-H82, etoposide concentration
Experimental: H82 cells seeded on 96-well plates at a density of 2000 cells/well were treated with Zn/ET and free etoposide at various etoposide concentrations for 96 h. The cell viability was then detected by MTS assay (Promega, Madison, Wis., United States of America) and the IC50 values were calculated accordingly. […] ET is likely released from Zn/ET via intracellular reduction by endogenous thiol groups as shown below in Scheme 9.

[3] = tested on: H69 cells; assay: In vitro cytotoxicity of NCP-1/ET/siRNA in SCLC, MTS, 72 h; format: cell-based
Experimental: (§1) Small cell lung cancer (SCLC) cell lines H82 and H69 cells were seeded into 96-well plate at 2000 cells/well for 24 h. Afterwards, cells were treated by cisplatin, ET, cisplatin+ET, NCP-1, NCP-1/ET, and NCP-1/ET/siRNAs at various concentrations and incubated for another 72 h. The cell viability was then determined via MTS assay by microplate reader.

[4] = tested on: H82 cells; assay: as above; format: cell-based
Experimental: as §1

[5] = tested on: A2780 cells; assay: In vitro cytotoxicity in ovarian cancer cells, MTS, 72 h; format: cell-based; conditions: Homo sapiens; A2780, 72 h, DHA concentration; read-out: IC50 of DHA (numbers in parenthesis)
Experimental: (§2) A2780, A2780/CDDP, and SKOV-3 cells were seeded into 96-well plate at 2000 cells/well for 24 h. Afterwards cells were treated with free DHA or Zn/DHA at various concentrations and incubated for another 72 h. The cell viability was then determined via MTS assay by microplate reader.
(§3) A2780, A2780/CDDP, and SKOV-3 cells were seeded into 96-well plate at 2000 cells/well for 24 h. Afterwards cells were treated with different formulations at various concentrations and incubated for another 72 h. The cell viability was then determined via MTS assay by microplate reader.

[6] = tested on: A2780/CDDP cells; assay: as above; format: cell-based
Experimental: as §2, §3

[7] = tested on: SKOV-3 cells; assay: as above; format: cell-based; conditions: Homo sapiens, SK-OV-3; SKOV-3, 72 h, DHA concentration; read-out: IC50 of DHA (numbers in parenthesis)
Experimental: as §2, §3

[8] = tested on: CT26 cells; assay: In vitro cytotoxicity of NCP-2/DHA; format: cell-based, murine
Experimental: (§4) The cytotoxicity of NCP-2/DHA was evaluated against two colon cancer cell lines CT26 and MC38. […] The combination index (CI50) for the two drugs was lower than 1 in some drug effect levels, indicating the syngestic effect between two drugs.

[9] = tested on: MC38 cells; assay: In vitro cytotoxicity of NCP-2/DHA; format: cell-based, murine
Experimental: as §4

[10] = tested on: CT26 cells; assay: In vitro cytotoxicity of NCP-3/DHA; format: cell-based, murine
Experimental: (§5) The cytotoxicity of NCP-3/DHA was evaluated against two colon cancer cell lines CT26 and MC38.

[11] = tested on: MC38 cells; assay: In vitro cytotoxicity of NCP-3/DHA; format: cell-based, murine
Experimental: as §5

[12] = tested on: CT26 cells; assay: In vitro cytotoxicity of NCP-2/PTX, MTS; format: cell-based, murine; conditions: read-out: Oxaliplatin IC50
Experimental: (§6) The cytotoxicity of NCP-2/PTX was evaluated against two colorectal cancer cells including murine colorectal adenocarcinoma CT26 and murine colorectal carcinoma MC38. By combining two chemotherapeutic agents with vastly different solubility requirements, NCP-2/PTX elicited substantial anticancer efficacy owing to synergy between the drugs.
(§7) The IC50 of oxaliplatin was substantially lower than that of paclitaxel by MTS assay, likely due to the hydrophobicity of paclitaxel. Paclitaxel was prepared in a stock solution of 3:1 ethanol:water ratio at 1 mg/ml before subsequent dilution to prepare free drug doses. The combination index (CI50) for the two drugs was much more favorable for the 1:1 compared to 2:1 molar ratio, with equal oxaliplatin doses.

[13] = tested on: MC38 cells; assay: In vitro cytotoxicity of NCP-2/PTX, MTS; format: cell-based, murine; conditions: MC38, drug ratio 1:1; read-out: Oxaliplatin IC50
Experimental: as §6, §7

[14] = tested on: CT26 cells; assay: In vitro cytotoxicity of NCP-2/MTX; format: cell-based, murine; conditions: CT26, drug ratio 2:1; read-out: Oxaliplatin IC50
Experimental: (§8) The cytotoxicity of NCP-2/MTX was evaluated against two syngeneic cancer cell lines:colorectal adenocarcinoma CT26 and colorectal carcinoma MC38. By combining two chemotherapeutic agents with vastly different solubility requirements, NCP-2/MTX elicited substantial anticancer efficacy owing to synergy between the drugs. […] The combination index (CI50) for the two drugs was much more favorable for the 2:1 compared to 1:1 molar ratio, with equal Pt doses.

[15] = tested on: MC38 cells; assay: In vitro cytotoxicity of NCP-2/MTX; format: cell-based, murine; conditions: MC38, drug ratio 1:1; read-out: Oxaliplatin IC50
Experimental: as §8

[16] = tested on: CT26 cells; assay: Apoptosis/necrosis by Annexin V flow cytometry; format: cell-based, murine; conditions: CT26, 24 h, oxaliplatin concentration 10 μM
Experimental: CT26 cells seeded in 24-well plates at 1×10^5 cells/well were first incubated with NCP-3/DHA or appropriate controls for 24 h at an oxaliplatin concentration of 10 μM. The floating and adherent cells were collected and stained with Alexa Fluor 488 AnnexinV/dead cell apoptosis kit (Invitrogen, USA) according to manufacturer's instructions. The apoptosis and necrosis were examined by a flow cytometry (LSRII Blue, BD, Franklin Lakes, N.J., United States of America).

[17] = tested on: CT26 cells; assay: Immunogenic cell death: cell surface CRT by flow cytometry; format: cell-based, murine; conditions: CT26, oxaliplatin 10 μM and/or DHA 20 μM, 24 h
Experimental: In Vitro Immunogenic Cell Death The immunogenic cell death induced by NCP-3/DHA was evaluated by flow cytometry and ELISA. For flow cytometry analysis, CT26 cells were seeded at 1×10^6 cells per well in 6-well plates and further cultured for 24 h. The culture media were replaced by 2 mL of fresh culture media containing 10% FBS. Oxaliplatin, DHA, chol-DHA, oxaliplatin+DHA, NCP-3, Zn/DHA and NCP-3/DHA were added to the cells, respectively, at equivalent oxaliplatin and/or DHA dose of 10 μM and 20 μM, respectively. Cells incubated with PBS served as control. Following incubation of 24 h, the cells were collected, incubated with AlexaFluor 488-CRT antibody for 2 h, and stained with PI. The samples were analyzed by flow cytometer (LSRII Orange, BD, Franklin Lakes, N.J., United States of America) to identify cell surface CRT. The fluorescence intensity of stained cells was gated on PI-negative cells.

[18] = tested on: CT26 cells; assay: HMGB-1 release by ELISA; format: cell-based, murine; conditions: CT26, oxaliplatin 10 μM and/or DHA 20 μM, 48 h
Experimental: The release of high mobility group box-1 (HMGB-1) protein after ICD was evaluated by ELISA. CT26 cells were seeded at 1×10^6 cells per well in 6-well plates and further cultured for 24 h. The culture media were replaced by 2 mL of fresh culture media containing 10% FBS. Oxaliplatin, DHA, chol-DHA, oxaliplatin+DHA, NCP-3, Zn/DHA, NCP-3/DHA, and NCP-3/OA-DHA were added to the cells, respectively, at equivalent oxaliplatin and/or DHA dose of 10 μM and 20 μM, respectively. Cells incubated with PBS served as control. Following incubation of 48 h, the supernatant was collected and analyzed by an ELISA kit (Chondrex, Inc., Redmond, Wash., United States of America) by microplate reader.

[19] = tested on: CT26 cells; assay: In vitro PDT cytotoxicity; format: cell-based, murine; conditions: read-out: Oxaliplatin IC50
Experimental: (§9) The cytotoxicity of NCP-2@pyrolipid was evaluated against two colorectal cancer cells including murine colorectal adenocarcinoma CT26 and human colorectal adenocarcinoma HT29 cells. By combining chemotherapy of oxaliplatin and PDT modalities into one single nanoparticle, NCP-2@pyrolipid induces apoptosis/necrosis as well as elicit immunogenic cell death upon LED light irradiation. […] However, upon irradiation at 54 J/cm^2 light irradiation (670 nm), the oxaliplatin IC50 of NCP-2@pyrolipid was decreased by ˜4-fold and ˜5-fold in CT26 and HT29 cells, respectively.

[20] = tested on: HT29 cells; assay: In vitro PDT cytotoxicity; format: cell-based, human; conditions: read-out: Oxaliplatin IC50
Experimental: as §9

[21] = tested on: CT26 cells; assay: In vitro PDT evoked immunogenic cell death (surface CRT); format: cell-based, murine; conditions: with or without irradiation, Pt 5 μM, pyrolipid 1.6 μM
Experimental: Calreticulin (CRT) is a distinct biomarker exposed on the surface of cells undergoing immunogenic cell death (ICD). The immunogenic cell death induced by NCP-2@pyrolipid was evaluated by immunofluorescence and flow cytometry. For immunofluorescence analysis, CT26 cells were seeded at 5×10^5 cells per well in 6-well plates and further cultured for 24 h. The culture media were replaced by 2 mL of fresh culture media containing 10% FBS. Oxaliplatin, NCP-2, NCP-2@pyrolipid, and porphysome were added to the cells, respectively, at an equivalent Pt dose of 5 μM and pyrolipid dose of 1.6 μM. Cells incubated with PBS served as control. After 24-h incubation, the cells were irradiated with LED light (670 nm) at 100 mW/cm^2 for 15 min (equal to 90 J/cm^2). Following further incubation of 4 h, the cells were washed with PBS three times, fixed with 4% paraformaldehyde, incubated with AlexaFluor 488-CRT antibody for 2 h, stained with DAPI, and observed under CLSM using 405 nm and 488 nm lasers for visualizing nuclei and CRT expression on the cell membrane, respectively. […] The samples were analyzed by flow cytometer (LSRII Orange, BD, Franklin Lakes, N.J., United States of America) to identify cell surface CRT. The fluorescence intensity of stained cells was gated on PI-negative cells.

[22] = tested on: H460 cells; assay: In vitro cytotoxicity against non-small cell lung cancer cells, MTS, 72 h; format: cell-based; conditions: Homo sapiens, NCI-H460
Experimental: H460 and A549 cells seeded on 96-well plates at a density of 2000 cells/well were treated with Zn/PTX and free PTX at various […] concentrations for 72 h. The cell viability was then detected by MTS assay (Promega, USA) and the IC50 values were calculated accordingly.

[23] = Mus musculus, CT26, DHA concentration, read-out: DHA IC50
[24] = Mus musculus, MC-38, MC38, DHA concentration, read-out: DHA IC50
[25] = CT26, read-out: Oxaliplatin IC50
[26] = MC38, read-out: Oxaliplatin IC50

CC(=O)c1cnc2ccc(-c3cc(Cl)c(O)c(Cl)c3)nc2c1N[C@H]1CC[C@H](CN(C)C)CC1 [OTS167]
IC50 ([1]; OTS167 concentration, read-out: IC50, OTS167): 0.0121 ± 0.00046 µM

COc1cc([C@@H]2c3cc4c(cc3[C@@H](O[C@@H]3O[C@@H]5CO[C@@H](C)O[C@H]5[C@H](O)[C@H]3O)[C@H]3COC(=O)[C@H]23)OCO4)cc(OC)c1O [Etoposide]
IC50 [2]: 8.83 ± 0.13 µM | IC50 ([3]; Homo sapiens, NCI-H69): 42.2 ± 0.61 µM | IC50 ([4]; Homo sapiens, NCI-H82): 30.9 ± 0.37 µM

C[C@H]1[C@@H](O)O[C@@H]2O[C@@]3(C)CC[C@H]4[C@H](C)CC[C@@H]1[C@@]24OO3 [DHA, dihydroartemisinin]
IC50 [5]: 0.3 ± 0.11 µM | IC50 ([6]; DHA concentration, read-out: IC50 of DHA (numbers in parenthesis)): 2.61 ± 0.18 µM | IC50 [7]: 9.9 ± 0.34 µM | IC50 [8, 23]: 7.77 ± 2.68 µM | IC50 [9, 24]: 4.83 ± 1.12 µM | IC50 [10, 23]: 6.25 ± 1.53 µM | IC50 [11, 24]: 9.68 ± 1.12 µM

N.N.[Cl][Pt][Cl] [Cisplatin, cisplatin]
IC50 ([6]; cisplatin concentration, read-out: IC50 of cisplatin): 19.8 ± 4.01 µM | IC50 [3]: 13.2 ± 0.35 µM | IC50 [4]: 7.93 ± 0.7 µM | IC50 ([1]; cisplatin concentration, read-out: IC50, Cisplatin): 12.8 ± 0.19 µM

O=C1[O][Pt]2([NH][C@@H]3CCCC[C@H]3[NH]2)[O]C1=O [oxaliplatin]
IC50 ([12]; CT26 (cell-line cell empty), drug ratio 2:1): 10.2 ± 0.98 µM | IC50 ([12]; CT26, drug ratio 1:1): 7.05 ± 0.95 µM | IC50 [13]: 3.35 ± 0.13 µM | IC50 [14]: 7.05 ± 0.59 µM | IC50 [15]: 3.35 ± 0.13 µM | IC50 [8, 25]: 5.77 ± 1.06 µM | IC50 [9, 26]: 7.87 ± 1.32 µM | IC50 [10, 25]: 10.3 ± 1.62 µM | IC50 [11, 26]: 12.8 ± 1.32 µM | apoptosis and necrosis [16]: caused necrosis | cell surface CRT expression [17]: caused cell surface CRT expression | HMGB-1 release [18]: HMGB-1 release | IC50 ([19]; CT26, irradiation No): 5.05 ± 0.95 µM | IC50 ([19]; CT26, irradiation Yes (670 nm, 54 J/cm^2)): 4.97 ± 0.49 µM | IC50 ([20]; HT29, irradiation No): 1.44 ± 0.32 µM | IC50 ([20]; HT29, irradiation Yes (670 nm, 54 J/cm^2)): 1.87 ± 0.31 µM | surface CRT expression [21]: significant amounts of CRT

CC(=O)O[C@H]1C(=O)[C@@]2(C)[C@H]([C@H](OC(=O)c3ccccc3)[C@]3(O)C[C@H](OC(=O)[C@H](O)[C@@H](NC(=O)c4ccccc4)c4ccccc4)C(C)=C1C3(C)C)[C@]1(OC(C)=O)CO[C@@H]1C[C@@H]2O [PTX, Paclitaxel]
IC50 [22]: 10.8 ± 0.44 µM
